Experimental data as given in US20250313546A1, “NUCLEIC ACID BINDERS” (UNIVERSITY OF STRATHCLYDE, priority 2022, published 2025).
In brackets after ≈: the same amount, converted by molar mass. Where two headings read alike, the source gives them in different places.

Tests used:
[1] = tested on: Staphylococcus aureus (ATCC 43300); assay: Antibacterial MIC, broth microdilution (CLSI); assay type: cell-based; settings: Staphylococcus aureus, ATCC43300; read-out: MIC80 S. aureus
[2] = tested on: Enterococcus faecalis (ATCC 51299); assay: Antibacterial MIC, broth microdilution (CLSI); assay type: cell-based; settings: Enterococcus faecalis, ATCC51299; read-out: MIC80 E. faecalis
[3] = tested on: Escherichia coli (ATCC 25922); assay: Antibacterial MIC, broth microdilution (CLSI); assay type: cell-based; settings: Escherichia coli, ATCC25922; read-out: MIC80 E. coli
Aspergillus fumigatus = assay: Expanded set of filamentous fungi, MIC broth microdilution (CLSI); assay type: cell-based
Aspergillus flavus = assay: as above; assay type: cell-based; settings: MIC at 50% inhibition; for MIC50: Aspergillus flavus
Fusarium oxysporum = assay: as above; assay type: cell-based; settings: MIC at 50% inhibition
Fusarium solani = assay: as above; assay type: cell-based; settings: MIC at 50% inhibition
Scedosporium spp. = assay: as above; assay type: cell-based
Lomentospora prolificans = assay: as above; assay type: cell-based; settings: isolate S2, MIC at 50% inhibition
Paecilomyces variotii = assay: as above; assay type: cell-based; settings: isolate MYA-3630, MIC at 50% inhibition
Rhizopus arrhizus = assay: as above; assay type: cell-based
Blastomyces dermatitidis = assay: as above; assay type: cell-based
Candida parapsilosis = assay: Expanded set of yeasts, MIC broth microdilution (CLSI); assay type: cell-based; settings: MIC at 50% inhibition; for MIC50: Lodderomyces parapsilosis
C. krusei = assay: as above; assay type: cell-based; settings: Pichia kudriavzevii, ATCC6258; isolate ATCC 6258; MIC at 50% inhibition
C. albicans = assay: as above; assay type: cell-based; settings: MIC at 50% inhibition; for MIC50: Candida albicans
C. auris = assay: as above; assay type: cell-based; settings: MIC at 50% inhibition
C. glabrata = assay: as above; assay type: cell-based; settings: Nakaseomyces glabratus, MIC at 50% inhibition
C. guilliiermondii = assay: as above; assay type: cell-based; settings: MIC at 50% inhibition
[4] = tested on: Genomic double stranded DNA (salmon); assay: Fluorescence intercalator displacement (FID) assay, SYBR-safe probe; settings: 20 μM compound, 30° C., lower % = stronger binding
Summary of the method: (§1)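 Probe displacement was measured at 30 °C in 1 mM phosphate pH 7.4 containing SybrSafe (12500-fold dilution), 3.76 ng/mL nucleic acid (salmon dsDNA or polyAU dsRNA) and 20 μM compound. Fluorescence loss is normalised between probe-only and probe-plus-nucleic-acid controls.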

[5] = tested on: PolyAU double stranded RNA; assay: as above; settings: 20 μM compound, 30° C., lower % = stronger binding
Summary of the method: as §1

CNC(=N)CCNC(=O)c1cc(NC(=O)c2cc(NC(=O)c3ccc(/C=C/c4cnc5ccccc5c4)cc3)cn2C)cn1C [Ia27, (E)-N-(3-imino-3-(methylamino)propyl)-1-methyl-4-(1-methyl-4-(4-(2-(quinolin-3-yl)vinyl)benzamido)-1H-pyrrole-2-carboxamido)-1H-pyrrole-2-carboxamide] showed an MIC80 [1] of under 5 µM, an MIC80 [2] of under 5 µM and an MIC80 [3] of over 100 µM. It also gave an MIC50 (Aspergillus fumigatus; isolate AF293, MIC at 50% inhibition) of at most 1 µg/mL, an MIC50 (Aspergillus fumigatus; isolate DI15-106, MIC at 50% inhibition) of at most 1 µg/mL and an MIC50 (Aspergillus fumigatus; isolate DI15-116, MIC at 50% inhibition) of at most 1 µg/mL. It also gave an MIC50 (Aspergillus fumigatus; isolate DI19-187, MIC at 50% inhibition) of at most 1 µg/mL, an MIC50 (Aspergillus fumigatus; isolate DI19-230, MIC at 50% inhibition) of at most 1 µg/mL and an MIC50 (Aspergillus fumigatus; isolate DI19-231, MIC at 50% inhibition) of at most 1 µg/mL. It also gave an MIC50 (Aspergillus fumigatus; isolate DI19-232, MIC at 50% inhibition) of at most 1 µg/mL, an MIC50 (Aspergillus fumigatus; isolate DI19-233, MIC at 50% inhibition) of at most 1 µg/mL and an MIC50 (Aspergillus fumigatus; isolate DI19-234, MIC at 50% inhibition) of at most 1 µg/mL. For the same compound, the MIC50 (Aspergillus fumigatus; isolate DI19-236, MIC at 50% inhibition) was at most 1 µg/mL, the MIC50 (Aspergillus fumigatus; isolate DI19-237, MIC at 50% inhibition) was at most 1 µg/mL and the MIC50 (Aspergillus fumigatus; isolate DI20-95, MIC at 50% inhibition) was at most 1 µg/mL. It also gave an MIC50 (Aspergillus fumigatus; isolate DI20-103, MIC at 50% inhibition) of at most 1 µg/mL, an MIC50 (Aspergillus flavus; ATCC204304, isolate ATCC 204304) of at most 1 µg/mL and an MIC50 (Aspergillus flavus; isolate Aflav2) of at most 1 µg/mL. The “MIC50 Aspergillus flavus” value (Aspergillus flavus; isolate Aflav3) was “*** (*** means MIC50 <= 1 μg/mL)”, the MIC50 (Fusarium oxysporum; Fusarium oxysporum, isolate F2) was at most 1 µg/mL and the “MIC50 Fusarium oxysporum” value (Fusarium oxysporum; isolate F3) was “*** (*** means MIC50 <= 1 μg/mL)”. The MIC50 (Fusarium solani; Fusarium solani, isolate F4) was at most 1 µg/mL, the “MIC50 Fusarium solani” value (Fusarium solani; isolate DI19-284) was “*** (*** means MIC50 <= 1 μg/mL)” and the MIC50 (Scedosporium spp.; isolate S1, MIC at 50% inhibition) was at most 1 µg/mL. For the same compound, the MIC50 (Scedosporium spp.; isolate S3, MIC at 50% inhibition) was at most 1 µg/mL, the MIC50 (Lomentospora prolificans) was at most 1 µg/mL and the MIC50 (Paecilomyces variotii) was 1 to 8 µg/mL (≈ 1.66 to 13.3 µM). The MIC50 (Rhizopus arrhizus; isolate 99-880, MIC at 50% inhibition) was at most 1 µg/mL, the MIC50 (Rhizopus arrhizus; isolate 99-892, MIC at 50% inhibition) was at most 1 µg/mL and the MIC50 (Rhizopus arrhizus; isolate RA3, MIC at 50% inhibition) was 1 to 8 µg/mL (≈ 1.66 to 13.3 µM). The MIC50 (Blastomyces dermatitidis; isolate BD1, MIC at 50% inhibition) was 1 to 8 µg/mL (≈ 1.66 to 13.3 µM), the MIC50 (Blastomyces dermatitidis; isolate BD2, MIC at 50% inhibition) was 1 to 8 µg/mL (≈ 1.66 to 13.3 µM) and the MIC50 (Blastomyces dermatitidis; isolate BD3, MIC at 50% inhibition) was 8 to 32 µg/mL (≈ 13.3 to 53.1 µM). For the same compound, the MIC50 (Candida parapsilosis; ATCC22019, isolate ATCC 22019, read-out: MIC50 Candida parapsilosis) was 1 to 8 µg/mL (≈ 1.66 to 13.3 µM), the MIC50 (Candida parapsilosis; isolate CP1, read-out: MIC50 C. parapsilosis) was 1 to 8 µg/mL (≈ 1.66 to 13.3 µM) and the “MIC50 C. parapsilosis” value (Candida parapsilosis; isolate CP2) was “** (** means 1 μg/mL < MIC50 <= 8 μg/mL)”. For the same compound, the “MIC50 C. parapsilosis” value (Candida parapsilosis; isolate CP3) was “** (** means 1 μg/mL < MIC50 <= 8 μg/mL)”, the MIC50 (C. krusei) was at most 1 µg/mL and the MIC50 (C. albicans; isolate CA3) was 1 to 8 µg/mL (≈ 1.66 to 13.3 µM). The MIC50 (C. albicans; isolate SC5314) was 1 to 8 µg/mL (≈ 1.66 to 13.3 µM), the “MIC50 C. albicans” value (C. albicans; isolate CA90028) was “** (** means 1 μg/mL < MIC50 <= 8 μg/mL)” and the MIC50 (C. auris; Candidozyma auris, isolate DI17-47) was 1 to 8 µg/mL (≈ 1.66 to 13.3 µM). The “MIC50 C. auris” value (C. auris; isolate DI17-46) was “** (** means 1 μg/mL < MIC50 <= 8 μg/mL)”, the “MIC50 C. auris” value (C. auris; isolate DI17-48) was “** (** means 1 μg/mL < MIC50 <= 8 μg/mL)” and the MIC50 (C. glabrata; isolate 05-62) was at most 1 µg/mL. It also gave an MIC50 (C. glabrata; isolate 05-761) of at most 1 µg/mL, an MIC50 (C. glabrata; isolate CG3) of at most 1 µg/mL and an MIC50 (C. guilliiermondii; isolate Cgui1) of 1 to 8 µg/mL (≈ 1.66 to 13.3 µM). The “MIC50 C. guilliiermondii” value (C. guilliiermondii; isolate Cgui2) was “** (** means 1 μg/mL < MIC50 <= 8 μg/mL)”, the “MIC50 C. guilliiermondii” value (C. guilliiermondii; isolate Cgui3) was “** (** means 1 μg/mL < MIC50 <= 8 μg/mL)” and the “% Normalised Fluorescence with gDNA” value [4] was 13%. For the same compound, the “% Normalised Fluorescence with polyAU RNA” value [5] was 17%.
